Reference: publication PMC7801736 (ACS infectious diseases, 2019)
≈ marks a conversion by molar mass, not a printed value. Like-named read-outs stand apart in the source and are kept apart here.

Experiments:
[1] = system: M. tuberculosis strain H37Rv; assay type: cell-based, Mycobacterium tuberculosis; conditions: H37Rv background
[2] = system: M. tuberculosis inhA overexpression strain mc^24914; test: microbe, parasite or virus in culture; assay type: cell-based, Mycobacterium tuberculosis; conditions: for MIC: Mycobacterium tuberculosis
[3] = system: M. tuberculosis strain H37Rv; conditions: cited from earlier work
[4] = read-out: MIC (µM) mc^24914, Table 1, commercial material, […]
[5] = read-out: MIC (µM) mc^24914, Table 2, synthetic material

SMILES | MIC [2, 4] [µM] | MIC [2, 5] [µM] | other results
COc1cccc(Nc2ccc([N+](=O)[O-])c3nonc23)c1 [JSF-2164, N-(3-methoxyphenyl)-7-nitrobenzo[c][1,2,5]oxadiazol-4-amine] | 30 (≈ 8.59 µg/mL) | 25 (≈ 7.16 µg/mL) | mutation rate (spontaneous resistance) [1]: ~10^−5; MIC shift versus the inhA overexpression strain as compared to H37Rv ([2]; mc^24914 vs H37Rv): 3 fold
COc1cccc(Nc2ccc(N)c3nonc23)c1 [JSF-3616, N4-(3-methoxyphenyl)-benzo[c][1,2,5]oxadiazole-4,7-diamine] |  | 32 (≈ 8.2 µg/mL) | 
COc1cccc(Nc2ccc3nonc3c2N)c1 [JSF-3617, N5-(3-methoxyphenyl)benzo[c][1,2,5]oxadiazole-4,5-diamine] |  | 125 (≈ 32 µg/mL) | 
NNC(=O)c1ccncc1 [isoniazid, reference compound] | 2.5 (≈ 0.343 µg/mL) | 2.5 (≈ 0.343 µg/mL) | 
O=[N+]([O-])c1cn2c(n1)OC[C@@H](OCc1ccc(OC(F)(F)F)cc1)C2 [pretomanid] |  |  | frequency of resistance [3]: 10^−5 to 10^−6
Oc1cc(Cl)ccc1Oc1ccc(Cl)cc1Cl [triclosan, reference compound] | 120 (≈ 34.7 µg/mL) |  | 
